Activity calls are given as the source filed them. No cut-off for these calls is given here.
Tests used:
[1] = target: T1, Cyclin-dependent kinase 12 (Homo sapiens, UniProt Q9NYV4); assay: Inhibition of CDK12 (unknown origin) in presence of ATP by kinase-glo plus luminescent assay
Target sequence in this assay (Q9NYV4 whole entry): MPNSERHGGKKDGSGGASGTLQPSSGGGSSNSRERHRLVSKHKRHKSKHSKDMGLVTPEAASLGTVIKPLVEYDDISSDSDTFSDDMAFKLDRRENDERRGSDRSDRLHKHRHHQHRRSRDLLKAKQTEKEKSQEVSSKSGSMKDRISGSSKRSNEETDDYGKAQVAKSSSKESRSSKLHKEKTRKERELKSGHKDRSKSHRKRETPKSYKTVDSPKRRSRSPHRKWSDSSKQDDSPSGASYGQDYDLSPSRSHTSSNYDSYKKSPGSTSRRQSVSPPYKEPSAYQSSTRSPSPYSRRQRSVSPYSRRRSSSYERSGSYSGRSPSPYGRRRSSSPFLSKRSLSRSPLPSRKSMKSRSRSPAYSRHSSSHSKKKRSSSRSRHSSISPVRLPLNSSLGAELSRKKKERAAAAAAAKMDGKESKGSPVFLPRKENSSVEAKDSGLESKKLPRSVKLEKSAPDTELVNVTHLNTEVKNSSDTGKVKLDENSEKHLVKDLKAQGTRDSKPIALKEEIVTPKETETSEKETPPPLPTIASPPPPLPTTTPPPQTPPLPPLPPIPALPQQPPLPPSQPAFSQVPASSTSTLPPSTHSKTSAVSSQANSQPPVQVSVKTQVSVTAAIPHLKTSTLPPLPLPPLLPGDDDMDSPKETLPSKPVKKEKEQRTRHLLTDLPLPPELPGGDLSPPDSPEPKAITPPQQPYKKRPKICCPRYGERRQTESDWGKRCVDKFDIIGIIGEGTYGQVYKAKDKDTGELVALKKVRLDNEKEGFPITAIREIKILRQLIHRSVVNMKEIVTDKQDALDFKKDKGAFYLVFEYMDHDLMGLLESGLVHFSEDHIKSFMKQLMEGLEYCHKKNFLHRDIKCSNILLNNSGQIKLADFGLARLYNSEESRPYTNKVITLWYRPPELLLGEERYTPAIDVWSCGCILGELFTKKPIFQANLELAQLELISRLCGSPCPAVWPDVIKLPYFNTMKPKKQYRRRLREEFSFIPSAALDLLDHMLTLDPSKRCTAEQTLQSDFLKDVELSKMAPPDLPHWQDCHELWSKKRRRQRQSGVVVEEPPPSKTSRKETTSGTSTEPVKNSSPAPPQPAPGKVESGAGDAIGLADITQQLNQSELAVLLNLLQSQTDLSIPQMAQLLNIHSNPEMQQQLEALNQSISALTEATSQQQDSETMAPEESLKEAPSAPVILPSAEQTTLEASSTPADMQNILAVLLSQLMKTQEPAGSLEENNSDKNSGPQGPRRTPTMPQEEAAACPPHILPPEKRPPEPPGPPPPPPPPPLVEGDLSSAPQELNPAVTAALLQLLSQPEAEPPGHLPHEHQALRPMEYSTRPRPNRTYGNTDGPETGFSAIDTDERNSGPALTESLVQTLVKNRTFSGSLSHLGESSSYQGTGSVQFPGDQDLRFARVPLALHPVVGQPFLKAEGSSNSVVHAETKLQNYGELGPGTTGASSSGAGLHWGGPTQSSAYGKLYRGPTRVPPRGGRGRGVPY

[2] = target: Poly [ADP-ribose] polymerase 2 (Homo sapiens, UniProt Q9UGN5); assay: Inhibition of PARP2 (unknown origin) incubated for 1 hr by ELISA analysis
[3] = Metabolic stability in human liver microsome assessed as intrinsic clearance in presence of NADPH incubated upto 60 mins by LC-MS/MS analysis; format: ADME; conditions: liver microsomes, read-out: CLH
[4] = Metabolic stability in BALB/c mouse liver microsome assessed as intrinsic clearance in presence of NADPH incubated upto 60 mins by LC-MS/MS analysis; format: ADME; conditions: liver microsomes, read-out: CLH
[5] = Cmax in Sprague-Dawley rat at 10 mg/kg, po measured upto 24 hrs by LC-MS/MS analysis; format: ADME, organism-based; conditions: in vivo
[6] = AUC (0 to t) in Sprague-Dawley rat at 10 mg/kg, po measured upto 24 hrs by LC-MS/MS analysis; format: ADME, organism-based; conditions: in vivo
[7] = Volume of distribution at steady state in Sprague-Dawley rat at 1 mg/kg, iv measured upto 24 hrs by LC-MS/MS analysis; format: ADME, organism-based; conditions: in vivo, read-out: Vdss
MDA-MB-231 [8] = assay: Downregulation of Pol II CTD at ser2 residue expression in human MDA-MB-231 cells incubated for 24 hrs; format: functional, cell-based; conditions: dose 5-20 µM
[9] = target: T1, Cyclin-dependent kinase 12; assay: Inhibition of CDK12 in human MDA-MB-436 cells assessed as effect on Pol II CTD at ser5 residue phosphorylation incubated for 24 hrs; format: cell-based; conditions: dose 5-20 µM
Target sequence in this assay (Q9NYV4 whole entry, looked up): as the sequence (Q9NYV4 whole entry) above

[10] = target: T1, Cyclin-dependent kinase 12; assay: Binding affinity to CDK12 in human MDA-MB-231 cells assessed as increase in protein thermal stabilization at 10 uM incubated for 6 hrs by CETSA based Western blot analysis; format: cell-based
Target sequence in this assay (Q9NYV4 whole entry, looked up): as the sequence (Q9NYV4 whole entry) above

[11] = target: Poly [ADP-ribose] polymerase 1 (Homo sapiens, UniProt P09874); assay: Binding affinity to PARP1 in human MDA-MB-436 cells assessed as increase in protein thermal stabilization at 10 uM incubated for 6 hrs by CETSA based Western blot analysis; format: cell-based
Sequence of Poly [ADP-ribose] polymerase 1 (P09874 whole entry): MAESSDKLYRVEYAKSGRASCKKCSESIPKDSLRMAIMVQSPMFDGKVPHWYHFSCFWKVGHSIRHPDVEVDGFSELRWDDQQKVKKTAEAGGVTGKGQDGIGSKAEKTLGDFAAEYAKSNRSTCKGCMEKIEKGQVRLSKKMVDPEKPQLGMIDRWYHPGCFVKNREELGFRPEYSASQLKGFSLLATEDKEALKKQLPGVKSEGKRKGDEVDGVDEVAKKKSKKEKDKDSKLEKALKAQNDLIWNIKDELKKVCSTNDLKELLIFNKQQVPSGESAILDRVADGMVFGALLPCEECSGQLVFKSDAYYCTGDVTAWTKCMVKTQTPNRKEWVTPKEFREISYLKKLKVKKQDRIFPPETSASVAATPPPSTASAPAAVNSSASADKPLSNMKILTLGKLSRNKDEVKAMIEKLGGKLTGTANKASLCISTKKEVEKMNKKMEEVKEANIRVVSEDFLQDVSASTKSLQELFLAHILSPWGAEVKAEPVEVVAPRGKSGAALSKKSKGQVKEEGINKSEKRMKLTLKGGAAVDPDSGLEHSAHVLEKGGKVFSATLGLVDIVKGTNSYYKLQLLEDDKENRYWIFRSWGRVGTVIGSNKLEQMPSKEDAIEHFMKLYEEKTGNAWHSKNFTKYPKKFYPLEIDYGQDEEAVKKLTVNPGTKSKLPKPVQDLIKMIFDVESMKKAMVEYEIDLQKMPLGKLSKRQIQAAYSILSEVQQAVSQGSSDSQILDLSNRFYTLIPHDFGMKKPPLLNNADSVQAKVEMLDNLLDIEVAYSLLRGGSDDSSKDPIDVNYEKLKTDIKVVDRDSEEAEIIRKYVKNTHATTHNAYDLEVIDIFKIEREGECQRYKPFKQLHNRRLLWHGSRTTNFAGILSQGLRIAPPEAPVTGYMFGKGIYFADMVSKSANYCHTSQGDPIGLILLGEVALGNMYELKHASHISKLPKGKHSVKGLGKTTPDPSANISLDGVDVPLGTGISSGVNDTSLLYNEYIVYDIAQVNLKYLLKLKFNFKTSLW

MDA-MB-436 [12] = assay: Upregulation of gamma-H2AX expression in human MDA-MB-436 cells incubated for 24 hrs by Western blot analysis; format: functional, cell-based; conditions: dose <= 20.0 µM
MDA-MB-231 [13] = assay: Induction of […] in human MDA-MB-231 cells assessed as increase in gamma-H2AX foci formation at 10 uM incubated for 24 hrs by confocal laser scanning microscopic analysis; format: functional, cell-based
MDA-MB-231 [14] = assay: […] DNA repair in human MDA-MB-231 cells assessed as […] formation at 10 uM incubated for 24 hrs by confocal laser scanning microscopic analysis; format: functional, cell-based
MDA-MB-231 [15] = assay: Induction of cell cycle arrest in human MDA-MB-231 cells assessed as accumulation of cells at S phase at 20 uM measured after 24 hrs by PI staining based cytometry analysis (reference value: 23.01 %); format: functional
MDA-MB-436 [16] = assay: Induction of cell cycle arrest in human MDA-MB-436 cells assessed as accumulation of cells at S phase at 5 uM measured after 24 hrs by PI staining based cytometry analysis (reference value: 25.43%); format: functional
MDA-MB-436 [17] = assay: Induction of cell cycle arrest in human MDA-MB-436 cells assessed as accumulation of cells at G2 phase at 10 uM measured after 24 hrs by PI staining based cytometry analysis (reference value: 2.54%); format: functional
MDA-MB-436 [18] = assay: Induction of cell cycle arrest in human MDA-MB-436 cells assessed as accumulation of cells at S phase at 20 uM measured after 24 hrs by PI staining based cytometry analysis (reference value: 25.43%); format: functional
MDA-MB-468 [19] = assay: Antiproliferative activity against human MDA-MB-468 cells assessed as decrease in number of colony formation at 10 uM measured after 24 days by crystal violet staining based analysis; format: functional, cell-based; conditions: time 24.0 day
MDA-MB-468 [20] = assay: Inhibition of cell migration in human MDA-MB-468 cells assessed as wound closure at 10 uM incubated for 24 hrs by wound healing assay; format: functional, cell-based
MDA-MB-468 [21] = assay: Inhibition of cell migration in human MDA-MB-468 cells assessed as upregulation of E-cadherin level by measuring fluorescence intensity at 10 uM incubated for 24 hrs by confocal microscopic analysis; format: functional, cell-based
MDA-MB-231 [22] = assay: Inhibition of cell migration in human MDA-MB-231 cells assessed as downregulation of MMP-2 level by measuring fluorescence intensity at 10 uM incubated for 24 hrs by confocal microscopic analysis; format: functional, cell-based
MDA-MB-231 [23] = assay: Induction of apoptosis in human MDA-MB-231 cells incubated for 24 hrs by Annexin V/PI staining based flow cytometry analysis; format: functional, cell-based; conditions: dose 5-20 µM
MDA-MB-468 [24] = assay: Induction of apoptosis in human MDA-MB-468 cells assessed as increase in […] at 10 uM incubated for 24 hrs by Annexin V/PI staining based flow cytometry analysis; format: functional, cell-based
[25] = Toxicity in BALB/c mouse xenografted with human MDA-MB-231 cells assessed as morphological changes in liver at 20 to 80 mg/kg, ip administered once daily for 16 days by H and E staining based analysis; format: organism-based; conditions: in vivo, 384 h, dose 20-80 mg/kg, time 16 day
[26] = Toxicity in BALB/c mouse xenografted with human MDA-MB-231 cells assessed as morphological changes in spleen at 20 to 80 mg/kg, ip administered once daily for 16 days by H and E staining based analysis; format: organism-based; conditions: in vivo, 384 h, dose 20-80 mg/kg, time 16 day
[27] = Toxicity in BALB/c mouse xenografted with human MDA-MB-231 cells assessed as morphological changes in kidney at 20 to 80 mg/kg, ip administered once daily for 16 days by H and E staining based analysis; format: organism-based; conditions: in vivo, 384 h, dose 20-80 mg/kg, time 16 day
Mus musculus = assay: In-vivo induction of DNA damage in ip dosed BALB/c mouse assessed as upregulation of gamma-H2AX level in tumor administered once daily for 16 days by Western blot analysis; format: functional, organism-based; conditions: dose 20-80 mg/kg, time 16.0 day
MDA-MB-231 [28] = assay: Antitumor activity against human MDA-MB-231 cells xenografted in ip dosed BALB/c mouse assessed as downregulation of MMP-2 level administered once daily for 16 days; format: functional, organism-based; conditions: dose 20-80 mg/kg, time 16.0 day

Sequence of Poly [ADP-ribose] polymerase 2 (Q9UGN5 whole entry): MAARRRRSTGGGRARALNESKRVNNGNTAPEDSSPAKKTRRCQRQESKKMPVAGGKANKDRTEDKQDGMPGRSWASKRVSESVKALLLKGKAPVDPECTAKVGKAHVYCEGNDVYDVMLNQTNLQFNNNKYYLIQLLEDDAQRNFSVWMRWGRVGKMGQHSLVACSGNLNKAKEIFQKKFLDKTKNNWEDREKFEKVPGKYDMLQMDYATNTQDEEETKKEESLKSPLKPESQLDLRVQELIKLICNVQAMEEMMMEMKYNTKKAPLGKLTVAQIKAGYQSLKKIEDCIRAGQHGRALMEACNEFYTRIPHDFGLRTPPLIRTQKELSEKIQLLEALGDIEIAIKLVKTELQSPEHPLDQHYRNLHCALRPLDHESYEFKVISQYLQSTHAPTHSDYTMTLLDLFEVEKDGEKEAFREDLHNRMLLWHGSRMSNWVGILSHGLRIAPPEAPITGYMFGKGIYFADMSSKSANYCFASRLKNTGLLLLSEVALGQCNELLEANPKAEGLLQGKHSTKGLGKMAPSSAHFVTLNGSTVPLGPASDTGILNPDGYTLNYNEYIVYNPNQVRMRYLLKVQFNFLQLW

For `NC(=O)c1cccc2[nH]c(NC(=O)c3cccc(C(=O)N4CCC(Nc5ncc(I)cn5)CC4)c3)nc12`, the IC50 [1] was 285 nM, the IC50 [2] was 30 nM and the CLint scaled [3] was 7.61 mL/min/kg. For the same compound, the CLint scaled [4] was 48.5 mL/min/kg, the Cmax [5] was 12.2 ng/mL and the AUC(0-t) at 24 h [6] was 60.6 ng·h/mL. For the same compound, the Vd [7] was 1.39 L/kg, the Activity (MDA-MB-231 [8]) was “Dose-Dependent Effect” and the inhibition [9] was “Dose-Dependent Effect”. For the same compound, the Activity [10] was “Active”, the Activity [11] was “Active” and the Activity (MDA-MB-436 [12]) was “Dose-Dependent Effect”. The Activity (MDA-MB-231 [13]) was “Active”, the Activity (MDA-MB-231 [14]) was “Active” and the Activity (MDA-MB-231 [15]) was 17.32%. For the same compound, the Activity (MDA-MB-436 [16]) was 26.5%, the Activity (MDA-MB-436 [17]) was 7.35% and the Activity (MDA-MB-436 [18]) was 21.2%. The Activity (MDA-MB-468 [19]) was “Active”, the inhibition (MDA-MB-468 [20]) was “Active” and the inhibition (MDA-MB-468 [21]) was “Active”. For the same compound, the inhibition (MDA-MB-231 [22]) was “Active”, the Activity (MDA-MB-231 [23]) was “Dose-Dependent Effect” and the Activity (MDA-MB-468 [24]) was “Active”. The Activity [25] was “Non-Toxic”, the Activity [26] was “Non-Toxic” and the Activity [27] was “Non-Toxic”. For the same compound, the Activity (Mus musculus) was “Active” and the Activity (MDA-MB-231 [28]) was “Active”.
